From PMC9597602, “Metal Complexes as Antifungals? From a Crowd-Sourced Compound Library to the First In Vivo Experiments” (JACS Au, 2022)
Where two headings read alike, the source gives them in different places. Values belong to the compound of their own block, whether it stands above or below them.

Tests used:
[1] = test system: Candida auris CBS12373 KCTC 17810; assay: Antifungal MIC assay, extended panel; format: cell-based; conditions: for MIC: read-out: MIC* Candida auris CBS12373
Method in brief: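 Yeast was grown for 3 days at 30 °C on YPD agar. Five colonies were suspended to 1 × 10^6 to 5 × 10^6 CFU/mL, checked by OD530, diluted in YNB medium, and dispensed onto compound-loaded 384-well NBS plates at 2.5 × 10^3 CFU/mL in 50 μL. Plates were covered and incubated without shaking at 35 °C for 36 h to determine MIC.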

[2] = test system: Candida auris CBS10913 JCM 15448; assay: Antifungal MIC assay, extended panel; format: cell-based; conditions: for MIC: Candidozyma auris, comparator antifungals, read-out: MIC* Candida auris CBS10913
Method in brief: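 Yeast strains were grown on YPD agar at 30 °C for 3 days. Five colonies were suspended to 1 × 10^6 to 5 × 10^6 CFU/mL (by OD530), diluted in YNB medium, and dispensed into compound-containing 384-well NBS plates to 2.5 × 10^3 CFU/mL in 50 μL. Covered plates were held at 35 °C for 36 h without shaking, and MIC was determined by broth dilution.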

[3] = test system: Cryptococcus neoformans H99 ATCC 208821 type strain; assay: Antifungal MIC assay; format: cell-based; conditions: for MIC: Cryptococcus neoformans, ATCC208821, comparator antifungals, read-out: MIC* Cryptococcus neoformans ATCC 208821
Method in brief: (§1)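 Yeasts grown 3 days on YPD agar at 30 °C; suspension diluted in YNB medium to a final 2.5 × 10^3 CFU/mL and exposed to compound at 35 °C for 36 h without shaking. MIC taken as lowest concentration giving ≥80% growth inhibition (CLSI M27 score 0–1).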

[4] = test system: C. albicans (ATCC 90028); assay: Galleria mellonella infection (survival) assay; format: in vivo, Candida albicans in Galleria mellonella larvae; conditions: G. mellonella inoculated with C. albicans, 10 μL compound solution, 5 days, vs untreated control
Method: In an initial survival assay, G. mellonella larvae were inoculated with C. albicans (ATCC 90028). The larvae were then injected with 10 μL of the compound solution, and their survival was monitored for the next 5 days. Fluconazole and 10% DMSO injections were used as controls.
The globally available strains for C. albicans and C. neoformans, namely, ATCC 90028 and H99, respectively, were used to assess the antifungal potential of the panel of cobalt complex compounds in the G. mellonella insect model. Each strain was cultured on Sabouraud dextrose agar (SDA) for 24–48 h at 27 °C prior to inoculation. Yeast colonies were then suspended in a phosphate-buffered saline solution (PBS), and cells’ concentrations were adjusted using a Neubauer counting chamber to 5 × 10^7 cells for ATCC 90028 and 1 × 10^8 cells for H99. Compounds were prepared by dissolving in 100% dimethylsulfoxide (DMSO) to 4 or 10 mM depending on compound solubility before being further diluted with water to 0.4 or 1 mM for injection into larvae.
Each group of larvae was subsequently incubated at 37 °C for 2 h in 90 mm Petri dishes. After incubation, larvae were injected with 10 μL of the compound into the last right pro-leg and returned to Petri dishes to incubate at 37 °C for 5 days. In addition to the panel of metal compounds, fluconazole (FLC) was included as a positive control (1 and 0.4 mM) and reference antifungal. Larvae inoculated with just the fungal strains and the fungal strains with 10% DMSO were also included as comparison groups. Larvae injected concurrently with PBS instead of fungal inoculum and compounds were used as negative controls. All larvae were checked daily for survival.

[5] = test system: C. albicans (ATCC 90028); assay: Galleria mellonella infection (log CFU reduction) assay; format: in vivo, Candida albicans in Galleria mellonella larvae; conditions: 1 mM, 10 μL; Pt1 19 mg/kg, Pt2 28 mg/kg, fluconazole 12 mg/kg; 24 h at 37 °C; vs 10% DMSO control
Method: To quantify the possible protective effect of Pt1 and Pt2 in G. mellonella challenged with C. albicans, we conducted a CFU reduction assay with these compounds. Briefly, G. mellonella larvae were inoculated with C. albicans (ATCC 90028) and incubated for 2 h at 37 °C. The larvae were then injected with 10 μL of the corresponding compound solution (1 mM) or control (same concentration and injection volume) and incubated for 24 h at 37 °C. The larvae were then anesthetized, macerated, and serially diluted onto SDA (Sabouraud dextrose agar) plates. After 48 h of incubation, the CFUs were counted.
A log CFU reduction assay was conducted for two compounds and two control groups. […] Fluconazole (1 mM) and 10% DMSO were used once again as the control groups. Fifteen G. mellonella larvae (200–250 mg) per test group were selected and inoculated with 10 μL of C. albicans at a concentration of 5 × 10^7 cells/mL and incubated on 90 mm Petri dishes in groups of five larvae for 2 h at 37 °C. Larvae were then subsequently injected with 10 μL of the corresponding test compound or control and returned to Petri dishes to incubate for 24 h at 37 °C.
Larvae were then anesthetized on ice for 5 to 10 min before being placed in individual prefilled 2 mL tubes with 3.0 mm diameter zirconium beads with 1000 μL of PBS. They were then macerated briefly using the BeadBug 6 Homogenizer (Benchmark Scientific, USA) in two 45 s intervals at 4350 rpm. After homogenization, serial dilutions of 1:100, 1:1000, and 1:10,000 were then made for each larva/tube, and 100 μL of the dilution was spread plated onto SDA plates with 50 μg/mL chloramphenicol. Plates were then incubated at 27 °C for 48 h before CFUs were counted.
A one-way ANOVA was conducted to compare the CFU counts for Pt1, Pt2, and both controls. After a significant difference was observed between the groups, a subsequent Tukey’s pairwise test was used to compare the individual test groups with each other.

[6] = test system: Candida albicans ATCC 90028 NCCLS11; assay: Antifungal MIC assay; format: cell-based; conditions: for MIC: Candida albicans, ATCC90028, comparator antifungals, read-out: MIC* Candida albicans ATCC 90028
Method in brief: as §1

[7] = test system: Candida glabrata ATCC 90030 NCCLS 84; assay: Antifungal MIC assay, extended panel; format: cell-based; conditions: extended panel, second batch; ≥80 or ≥50% inhibition
Method in brief: as §1

[8] = test system: Cryptococcus deuterogattii ATCC 32609 VGII; assay: Antifungal MIC assay, extended panel; format: cell-based; conditions: extended panel, second batch; ≥80 or ≥50% inhibition
[9] = test system: Candida tropicalis ATCC 750; assay: Antifungal MIC assay, extended panel; format: cell-based; conditions: extended panel, second batch; ≥80 or ≥50% inhibition
Method in brief: as §1

[10] = test system: Cryptococcus deuterogattii CBS7750 VGII; Serotype B; assay: Antifungal MIC assay, extended panel; format: cell-based; conditions: extended panel, second batch; ≥80 or ≥50% inhibition
Method in brief: as §1

[11] = test system: Cryptococcus deuterogattii ATCC 32609 VGII; assay: Antifungal MIC assay, extended panel; format: cell-based; conditions: extended panel; 50% inhibition, MIC score 2
[12] = test system: Candida glabrata ATCC 90030 NCCLS 84; assay: Antifungal MIC assay, extended panel; format: cell-based; conditions: extended panel; 50% inhibition, MIC score 2
[13] = test system: Escherichia coli ATCC 25922 FDA control strain; assay: CO-ADD antibacterial MIC assay; format: cell-based; conditions: initial CO-ADD dose-response screening; ≥80% growth inhibition
Method in brief: (§2)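 Mid-log cultures in cation-adjusted Mueller Hinton broth at 5 × 10^5 CFU/mL, incubated with compound 18 h at 37 °C without shaking; growth read as OD600. MIC is the lowest concentration giving ≥80% growth inhibition; two technical replicates in two independent assays (n = 4).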

[14] = test system: methicillin-resistant Staphylococcus aureus ATCC 43300; assay: CO-ADD antibacterial MIC assay; format: cell-based; conditions: initial CO-ADD dose-response screening; ≥80% growth inhibition
Method in brief: as §2

[15] = test system: Acinetobacter baumannii ATCC 19606 type strain; assay: CO-ADD antibacterial MIC assay; format: cell-based; conditions: initial CO-ADD dose-response screening; ≥80% growth inhibition
Method in brief: as §2

[16] = test system: Pseudomonas aeruginosa ATCC 27853 QC control strain; assay: CO-ADD antibacterial MIC assay; format: cell-based; conditions: initial CO-ADD dose-response screening; ≥80% growth inhibition
Method in brief: as §2

[17] = test system: Cryptococcus deuterogattii CBS7750 VGII; Serotype B; assay: Antifungal MIC assay, extended panel; format: cell-based; conditions: extended panel; 50% inhibition, MIC score 2
[18] = test system: Candida tropicalis ATCC 750; assay: Antifungal MIC assay, extended panel; format: cell-based; conditions: extended panel; 50% inhibition, MIC score 2
[19] = test system: human ovarian carcinoma cell line A2780; conditions: cited from earlier work
[20] = test system: HEK-293 human embryonic kidney cells ATCC CRL-1573
Method: The cells were incubated together with the compounds for 20 h at 37 °C in 5% CO2. […] Tamoxifen (Sigma T5648) was used as internal control on each plate.

[21] = test system: human red blood cells; format: cell-based
Method in brief: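 Washed human erythrocytes at 0.5 × 10^8 cells/mL incubated with compound, then centrifuged. Haemolysis read as supernatant OD405, normalised to untreated cells (0%) and 1% Triton X-100 (100%), with melittin as internal plate control.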

[22] = ≥80% inhibition, converted with MW of Table S12
[23] = extended panel, second batch, ≥80 or ≥50% inhibition
[24] = extended panel, 50% inhibition, MIC score 2
[25] = initial CO-ADD dose-response screening, ≥80% growth inhibition

Structure (SMILES): OC(Cn1cncn1)(Cn1cncn1)c1ccc(F)cc1F [Fluconazole, reference compound]
- MIC ([1]; Candidozyma auris, comparator antifungals, MIC = ≥80% inhibition): ≤ 0.004 µg/mL
- MIC ([1]; Candidozyma auris, comparator antifungals, ≥80% inhibition, converted with MW of Table S12): ≤ 0.018 µM
- MIC ([2]; MIC = ≥80% inhibition): ≤ 0.004 µg/mL
- MIC [2, 22]: ≤ 0.018 µM
- MIC ([3]; MIC = ≥80% inhibition): 2 to 4 µg/mL
- MIC [3, 22]: 9.25 to 18.5 µM
- larva survival [4]: significant larva survival
- reduction in CFUs [5]: 1.1 log10
- MIC ([6]; MIC = ≥80% inhibition): 0.004 µg/mL
- MIC [6, 22]: 0.018 µM

- MIC [1, 23]: 0.78 µM
- MIC50 Candida auris CBS12373 [1, 24]: 0.391 to 0.781 µM
- MIC Candida auris CBS10913 [2, 23]: 0.781 to 1.56 µM
- MIC50 Candida auris CBS10913 [2, 24]: 0.781 to 1.56 µM
- MIC [7]: 6.25 µM
- MIC Cryptococcus deuterogattii ATCC 32609 [8]: 0.781 to 1.56 µM
- MIC Candida tropicalis ATCC 750 [9]: 0.391 to 0.781 µM
- MIC [10]: 0.391 µM
- MIC50 Cryptococcus deuterogattii ATCC 32609 [11]: 0.78 to 1.56 µM
- MIC Cryptococcus neoformans ATCC 208821 [3, 23]: 0.195 to 0.391 µM
- MIC50 Cryptococcus neoformans ATCC 208821 [3, 24]: 0.195 to 0.391 µM
- MIC Cn [3, 25]: 2 µg/mL
- MIC50 Candida glabrata ATCC 90030 [12]: 0.391 to 6.25 µM
- MIC Ec [13]: >32 µg/mL
- MIC MRSA (Sa) [14]: >32 µg/mL
- MIC Ab [15]: >32 µg/mL
- MIC Pa [16]: >32 µg/mL
- MIC50 Cryptococcus deuterogattii CBS7750 [17]: 0.391 µM
- MIC50 Candida tropicalis ATCC 750 [18]: 0.391 to 0.781 µM
- RBC HC10 ([21]; ranges obtained upon retesting, new batch): 0.4 to 3 µM
- MIC Candida albicans ATCC 90028 [6, 23]: 0.39 to 1.56 µM
- MIC50 Candida albicans ATCC 90028 [6, 24]: 0.391 to 1.56 µM
- MIC Ca [6, 25]: 4 µg/mL
Structure (SMILES): Cc1c(C)c(C)[c-](C)c1C.Cc1c(C)c(C)[c-](C)c1C.[Cl-].[Cl-].[Cl-].[Cl-].[Rh+3].[Rh+3] [Rh1]
- IC50 [19]: 7.3 ± 1.5 µM
- HEK CC50 ([20]; initial CO-ADD screening, 20 h): >32 µg/mL
- CC50 ([20]; read-out: HEK293 CC50, ranges obtained upon retesting, new batch): > 200 µM
- cytotoxicity: none up to stated concentration ([20]; retest): > 200 µM
- RBC HC10 ([21]; initial CO-ADD screening, 1 h, 10% hemolysis): >32 µg/mL
